In paper PMC5218480 (PLoS ONE, 2017):

System: MV-4-11 cells
Assay: Gene expression microarray analysis (Affymetrix PrimeView) and GSEA
Type: cell-based, human
Design: RFU PODN (11730768_x_at) / Fold change /veh PODN (11730768_x_at) / RFU LINC00158 (11744669_a_at) / Fold change /veh LINC00158 (11744669_a_at) / RFU DUSP10 (11751237_a_at) / Fold change /veh DUSP10 (11751237_a_at) / RFU ID3 (11757404_x_at) / Fold change /veh ID3 (11757404_x_at) / RFU PLEKHG5 (11737974_s_at) / Fold change /veh PLEKHG5 (11737974_s_at) / RFU LRRC4B (11730491_at) / Fold change /veh LRRC4B (11730491_at) / RFU GIMAP4 (11747438_a_at) / Fold change /veh GIMAP4 (11747438_a_at) / RFU KRT8 (11758183_x_at) / Fold change /veh KRT8 (11758183_x_at) / RFU CNN1 (11734310_a_at) / Fold change /veh CNN1 (11734310_a_at) / RFU VPS37D (11726825_at) / Fold change /veh VPS37D (11726825_at) / RFU C10orf10 (11716522_x_at) / Fold change /veh C10orf10 (11716522_x_at) / RFU KIR2DL2 /// KIR2DL4 /// KIR2DL5A /// KIR2DL5B /// KIR2DS1 /// KIR2DS2 /// KIR2DS3 /// KIR2DS4 /// KIR3DL3 /// KIR3DL3 /// KIR3DS1 (11738374_at) / Fold change /veh KIR2DL2 /// KIR2DL4 /// KIR2DL5A /// KIR2DL5B /// KIR2DS1 /// KIR2DS2 /// KIR2DS3 /// KIR2DS4 /// KIR3DL3 /// KIR3DL3 /// KIR3DS1 (11738374_at) / RFU C1QL1 (11718748_at) / Fold change /veh C1QL1 (11718748_at) / RFU TMPRSS4 (11747572_a_at) / Fold change /veh TMPRSS4 (11747572_a_at) / RFU HAMP (11756126_x_at) / Fold change /veh HAMP (11756126_x_at) / RFU RNFT2 (11725882_a_at) / Fold change /veh RNFT2 (11725882_a_at) / RFU NR4A2 (11747474_a_at) / Fold change /veh NR4A2 (11747474_a_at) / RFU ABCC12 (11746883_a_at) / Fold change /veh ABCC12 (11746883_a_at) / RFU TMEM136 (11760407_x_at) / Fold change /veh TMEM136 (11760407_x_at) / RFU CLDN22 /// WWC2 (11732394_at) / Fold change /veh CLDN22 /// WWC2 (11732394_at) / RFU HLA-DPB1 (11760878_x_at) / Fold change /veh HLA-DPB1 (11760878_x_at) / RFU SPINT1 (11716480_a_at) / Fold change /veh SPINT1 (11716480_a_at) / RFU GAP43 (11754022_s_at) / Fold change /veh GAP43 (11754022_s_at) / RFU A4GNT (11735810_at) / Fold change /veh A4GNT (11735810_at) / RFU PRB3 (11715151_x_at) / Fold change /veh PRB3 (11715151_x_at) / RFU TUBB4B (11761932_at) / Fold change /veh TUBB4B (11761932_at) / RFU CAPN14 (11732068_a_at) / Fold change /veh CAPN14 (11732068_a_at) / RFU TMCC2 (11721928_a_at) / Fold change /veh TMCC2 (11721928_a_at) / RFU IRGQ (11745062_a_at) / Fold change /veh IRGQ (11745062_a_at) / RFU FAM174B (11720279_a_at) / Fold change /veh FAM174B (11720279_a_at) / RFU TMPRSS4 (11748680_a_at) / Fold change /veh TMPRSS4 (11748680_a_at) / RFU FAM212B (11763350_a_at) / Fold change /veh FAM212B (11763350_a_at) / RFU PLEKHG5 (11743358_a_at) / Fold change /veh PLEKHG5 (11743358_a_at) / RFU ZSCAN30 (11745921_a_at) / Fold change /veh ZSCAN30 (11745921_a_at) / RFU CMKLR1 (11741424_a_at) / Fold change /veh CMKLR1 (11741424_a_at) / RFU LOC101060620 /// MAPK8IP1 (11723275_at) / Fold change /veh LOC101060620 /// MAPK8IP1 (11723275_at) / RFU SPTSSB (11747773_x_at) / Fold change /veh SPTSSB (11747773_x_at) / RFU PRSS12 (11739890_at) / Fold change /veh PRSS12 (11739890_at) / RFU BIN1 (11741810_x_at) / Fold change /veh BIN1 (11741810_x_at) / RFU WNT11 (11732464_a_at) / Fold change /veh WNT11 (11732464_a_at) / RFU C10orf10 (11716521_a_at) / Fold change /veh C10orf10 (11716521_a_at) / RFU C5orf56 (11738089_at) / Fold change /veh C5orf56 (11738089_at) / RFU CYB561 (11721691_x_at) / Fold change /veh CYB561 (11721691_x_at) / RFU ANKRD19P (11752326_a_at) / Fold change /veh ANKRD19P (11752326_a_at) / RFU OR2T12 /// OR2T33 /// OR2T8 (11738714_s_at) / Fold change /veh OR2T12 /// OR2T33 /// OR2T8 (11738714_s_at) / RFU VCAN (11748164_a_at) / Fold change /veh VCAN (11748164_a_at) / RFU JSRP1 (11732532_at) / Fold change /veh JSRP1 (11732532_at) / RFU KRTAP10-11 (11738290_x_at) / Fold change /veh KRTAP10-11 (11738290_x_at) / RFU MYO3A (11730013_a_at) / Fold change /veh MYO3A (11730013_a_at) / RFU EBF3 (11725865_a_at) / Fold change /veh EBF3 (11725865_a_at) / RFU CAMK2N1 (11719241_x_at) / Fold change /veh CAMK2N1 (11719241_x_at) / RFU C5orf56 (11738088_a_at) / Fold change /veh C5orf56 (11738088_a_at) / RFU OLFML3 (11715873_a_at) / Fold change /veh OLFML3 (11715873_a_at) / RFU LOC100653217 /// NTM (11731650_a_at) / Fold change /veh LOC100653217 /// NTM (11731650_a_at) / RFU MAPK11 (11762145_a_at) / Fold change /veh MAPK11 (11762145_a_at) / RFU FIZ1 (11724087_x_at) / Fold change /veh FIZ1 (11724087_x_at) / RFU OASL (11726364_x_at) / Fold change /veh OASL (11726364_x_at) / RFU SOX15 (11748057_x_at) / Fold change /veh SOX15 (11748057_x_at) / RFU CD79A (11719716_a_at) / Fold change /veh CD79A (11719716_a_at) / RFU HIST1H1D (11736915_at) / Fold change /veh HIST1H1D (11736915_at) / RFU CASKIN2 (11723855_a_at) / Fold change /veh CASKIN2 (11723855_a_at) / RFU LOC730098 (11760151_x_at) / Fold change /veh LOC730098 (11760151_x_at) / RFU OR4N2 (11742367_at) / Fold change /veh OR4N2 (11742367_at) / RFU PRRT2 (11749266_a_at) / Fold change /veh PRRT2 (11749266_a_at) / RFU SNX32 (11753110_a_at) / Fold change /veh SNX32 (11753110_a_at) / RFU CDHR5 (11726645_a_at) / Fold change /veh CDHR5 (11726645_a_at) / RFU RCAN1 (11760418_a_at) / Fold change /veh RCAN1 (11760418_a_at) / RFU FAM167A (11723789_a_at) / Fold change /veh FAM167A (11723789_a_at) / RFU FAM26E (11764081_at) / Fold change /veh FAM26E (11764081_at) / RFU ISYNA1 (11749810_s_at) / Fold change /veh ISYNA1 (11749810_s_at) / RFU ACY1 (11761880_at) / Fold change /veh ACY1 (11761880_at) / RFU 11764098_at / Fold change /veh 11764098_at / RFU SAMD14 (11745864_x_at) / Fold change /veh SAMD14 (11745864_x_at) / RFU NPB (11741838_a_at) / Fold change /veh NPB (11741838_a_at) / RFU TMPRSS6 (11731388_a_at) / Fold change /veh TMPRSS6 (11731388_a_at) / RFU KRTAP10-2 (11738614_at) / Fold change /veh KRTAP10-2 (11738614_at) / RFU ARHGAP8 /// PRR5-ARHGAP8 (11727945_x_at) / Fold change /veh ARHGAP8 /// PRR5-ARHGAP8 (11727945_x_at) / RFU KRTAP5-7 /// NADSYN1 (11734609_at) / Fold change /veh KRTAP5-7 /// NADSYN1 (11734609_at) / RFU RASL12 (11751679_a_at) / Fold change /veh RASL12 (11751679_a_at) / RFU CDKN2B (11736163_a_at) / Fold change /veh CDKN2B (11736163_a_at) / RFU PRF1 (11729649_at) / Fold change /veh PRF1 (11729649_at) / RFU, ZNF638 /// ZNF638-IT1 / Fold change vs veh, ZNF638 /// ZNF638-IT1 / RFU, PANK3 / Fold change vs veh, PANK3 / RFU, SH3YL1 / Fold change vs veh, SH3YL1 / RFU, ZEB2 / Fold change vs veh, ZEB2 / RFU, NRIP1 / Fold change vs veh, NRIP1 / RFU, PTTG1IP / Fold change vs veh, PTTG1IP / RFU, CAPN2 / Fold change vs veh, CAPN2 / RFU, MED14 / Fold change vs veh, MED14 / RFU, SNORA58 / Fold change vs veh, SNORA58 / RFU, C1orf63 / Fold change vs veh, C1orf63 / RFU, LRRFIP1 / Fold change vs veh, LRRFIP1 / RFU, NDUFAF7 / Fold change vs veh, NDUFAF7 / RFU, SLC12A2 / Fold change vs veh, SLC12A2 / RFU, IBTK / Fold change vs veh, IBTK / RFU, ESF1 / Fold change vs veh, ESF1 / Fold change vs veh, TMEM50B / RFU, TAOK1 / Fold change vs veh, TAOK1 / RFU, ACBD3 / Fold change vs veh, ACBD3 / RFU, TMA16 / Fold change vs veh, TMA16 / RFU, RWDD3 / Fold change vs veh, RWDD3 / RFU, BCAT1 / Fold change vs veh, BCAT1 / RFU, EDEM3 / Fold change vs veh, EDEM3 / RFU, TMEM33 / Fold change vs veh, TMEM33 / RFU, WDR75 / Fold change vs veh, WDR75 / RFU, AHCTF1 / Fold change vs veh, AHCTF1 / RFU, TFRC / Fold change vs veh, TFRC / RFU, ZDHHC17 / Fold change vs veh, ZDHHC17 / RFU, NOM1 / Fold change vs veh, NOM1 / RFU, ARL8B / Fold change vs veh, ARL8B / RFU, ZBTB11 / Fold change vs veh, ZBTB11 / RFU, TAMM41 / Fold change vs veh, TAMM41 / RFU, KIAA1704 /// LOC100996395 / Fold change vs veh, KIAA1704 /// LOC100996395 / RFU, ING1 / Fold change vs veh, ING1 / RFU, TRMT61B / Fold change vs veh, TRMT61B / RFU, FUBP3 / Fold change vs veh, FUBP3 / RFU, TP53 / Fold change vs veh, TP53 / RFU, TNKS2 / Fold change vs veh, TNKS2 / RFU, ZFP14 / Fold change vs veh, ZFP14 / RFU, ACTR2 / Fold change vs veh, ACTR2 / RFU, PPP3R1 / Fold change vs veh, PPP3R1 / RFU, PIK3R1 / Fold change vs veh, PIK3R1 / RFU, HNRNPA1 / Fold change vs veh, HNRNPA1 / RFU, RNF170 / Fold change vs veh, RNF170 / RFU, ZNF28 / Fold change vs veh, ZNF28 / RFU, RNGTT / Fold change vs veh, RNGTT / RFU, OGT / Fold change vs veh, OGT / RFU, BRD1 / Fold change vs veh, BRD1 / RFU, MARS / Fold change vs veh, MARS / RFU, ZNF655 / Fold change vs veh, ZNF655 / RFU, FAHD1 / Fold change vs veh, FAHD1 / RFU, BDP1 / Fold change vs veh, BDP1 / RFU, LRRCC1 / Fold change vs veh, LRRCC1 / RFU, ARID1A / Fold change vs veh, ARID1A / RFU, ZNF146 / Fold change vs veh, ZNF146 / RFU, ZNF330 / Fold change vs veh, ZNF330 / RFU, GPN3 / Fold change vs veh, GPN3 / RFU, C9orf123 / Fold change vs veh, C9orf123 / RFU, N4BP2L2 / Fold change vs veh, N4BP2L2 / RFU, ARFIP1 / Fold change vs veh, ARFIP1 / RFU, FAM179B / Fold change vs veh, FAM179B / RFU, BCL10 / Fold change vs veh, BCL10 / RFU, UHRF1BP1L / Fold change vs veh, UHRF1BP1L / RFU, BET1 / Fold change vs veh, BET1 / RFU, CNOT2 / Fold change vs veh, CNOT2 / RFU, ZNF268 / Fold change vs veh, ZNF268 / Fold change vs veh, ZNF507 / RFU, DGCR2 / Fold change vs veh, DGCR2 / RFU, WDSUB1 / Fold change vs veh, WDSUB1 / Fold change vs veh, HSP90B1 /// MIR3652 / RFU, ADSS / Fold change vs veh, ADSS / RFU, GK / Fold change vs veh, GK / RFU, ZNF148 / Fold change vs veh, ZNF148 / RFU, TAF9 / Fold change vs veh, TAF9 / RFU, SLC1A5 / Fold change vs veh, SLC1A5 / RFU, SLMO2 / Fold change vs veh, SLMO2 / RFU, ABCC4 / Fold change vs veh, ABCC4 / RFU, LOC101060439 /// RAP1B / Fold change vs veh, LOC101060439 /// RAP1B / RFU, RFX7 / Fold change vs veh, RFX7 / RFU, GTPBP10 / Fold change vs veh, GTPBP10 / RFU, CNEP1R1 / Fold change vs veh, CNEP1R1 / RFU, BIVM-ERCC5 /// ERCC5 / Fold change vs veh, BIVM-ERCC5 /// ERCC5 / RFU, ILF3 / Fold change vs veh, ILF3 / RFU 11762660_at / Fold change /veh 11762660_at / RFU VCAN (11757783_s_at) / Fold change /veh VCAN (11757783_s_at) / RFU DDX43 (11728927_at) / Fold change /veh DDX43 (11728927_at) / RFU KRT8 (11758188_x_at) / Fold change /veh KRT8 (11758188_x_at) / RFU NKD1 (11759106_at) / Fold change /veh NKD1 (11759106_at) / RFU SRD5A1 (11742802_a_at) / Fold change /veh SRD5A1 (11742802_a_at) / RFU TPSAB1 /// TPSB2 (11721975_s_at) / Fold change /veh TPSAB1 /// TPSB2 (11721975_s_at) / RFU GSTM3 (11746129_a_at) / Fold change /veh GSTM3 (11746129_a_at) / RFU IL23R (11737362_x_at) / Fold change /veh IL23R (11737362_x_at) / RFU TMEM51 (11727254_a_at) / Fold change /veh TMEM51 (11727254_a_at) / RFU PIWIL2 (11732686_x_at) / Fold change /veh PIWIL2 (11732686_x_at) / RFU ORM1 (11744905_x_at) / Fold change /veh ORM1 (11744905_x_at) / RFU CCDC152 (11743942_at) / Fold change /veh CCDC152 (11743942_at) / RFU ECM1 (11717891_a_at) / Fold change /veh ECM1 (11717891_a_at) / RFU IL23R (11748794_a_at) / Fold change /veh IL23R (11748794_a_at) / RFU TNFAIP8L3 (11732012_x_at) / Fold change /veh TNFAIP8L3 (11732012_x_at) / RFU MBOAT4 (11741988_at) / Fold change /veh MBOAT4 (11741988_at) / RFU 11764193_at / Fold change /veh 11764193_at / RFU TMEM53 (11763286_at) / Fold change /veh TMEM53 (11763286_at) / RFU MAGEB2 (11727129_at) / Fold change /veh MAGEB2 (11727129_at) / RFU TMEM200A (11744735_a_at) / Fold change /veh TMEM200A (11744735_a_at) / RFU CCDC152 (11751479_a_at) / Fold change /veh CCDC152 (11751479_a_at) / RFU FAM211A (11726209_a_at) / Fold change /veh FAM211A (11726209_a_at) / RFU RGS16 (11746705_a_at) / Fold change /veh RGS16 (11746705_a_at) / RFU VCAN (11755009_s_at) / Fold change /veh VCAN (11755009_s_at) / RFU RHOB (11743442_s_at) / Fold change /veh RHOB (11743442_s_at) / RFU RGS16 (11720943_a_at) / Fold change /veh RGS16 (11720943_a_at) / RFU RGS16 (11720944_at) / Fold change /veh RGS16 (11720944_at) / RFU, VPS4B / Fold change vs veh, VPS4B / RFU, CREB1 / Fold change vs veh, CREB1 / RFU, DNAJC13 / Fold change vs veh, DNAJC13 / RFU, GNAQ / Fold change vs veh, GNAQ / RFU, CDK5R1 / Fold change vs veh, CDK5R1 / RFU, ZRANB3 / Fold change vs veh, ZRANB3 / RFU, CUL4A / Fold change vs veh, CUL4A / RFU, CCNY / Fold change vs veh, CCNY / RFU, UFL1 / Fold change vs veh, UFL1 / RFU, COG3 / Fold change vs veh, COG3 / RFU, DIAPH2 / Fold change vs veh, DIAPH2 / RFU, SKA2 / Fold change vs veh, SKA2 / RFU, AFF3 / Fold change vs veh, AFF3 / RFU, LMF1 / Fold change vs veh, LMF1 / RFU, IPO11 / Fold change vs veh, IPO11 / RFU, DFFB / Fold change vs veh, DFFB / RFU, FOXP1 / Fold change vs veh, FOXP1 / RFU, CARD8 / Fold change vs veh, CARD8 / RFU, STRN3 / Fold change vs veh, STRN3 / RFU, ADK / Fold change vs veh, ADK / RFU, RASSF2 / Fold change vs veh, RASSF2 / RFU, WIPF1 / Fold change vs veh, WIPF1 / RFU, LARP1B / Fold change vs veh, LARP1B / RFU, RASA1 / Fold change vs veh, RASA1 / RFU, RB1 / Fold change vs veh, RB1 / RFU, PPFIA1 / Fold change vs veh, PPFIA1 / RFU, MAT2A / Fold change vs veh, MAT2A / RFU, CCT5 / Fold change vs veh, CCT5 / RFU, WDR92 / Fold change vs veh, WDR92 / RFU, CUX1 / Fold change vs veh, CUX1 / RFU, TTC7A / Fold change vs veh, TTC7A / RFU, TMEM135 / Fold change vs veh, TMEM135 / RFU, DEPTOR / Fold change vs veh, DEPTOR / RFU, CPM / Fold change vs veh, CPM / RFU, DNAJB6 / Fold change vs veh, DNAJB6 / RFU, CACNA2D3 / Fold change vs veh, CACNA2D3 / RFU, DTX4 / Fold change vs veh, DTX4 / RFU, TFCP2 / Fold change vs veh, TFCP2 / RFU, GMCL1 /// GMCL1P1 / Fold change vs veh, GMCL1 /// GMCL1P1 / RFU, AEBP2 / Fold change vs veh, AEBP2 / RFU, SNHG1 /// SNORD22 /// SNORD25 /// SNORD26 /// SNORD27 /// SNORD28 /// SNORD29 /// SNORD31 / Fold change vs veh, SNHG1 /// SNORD22 /// SNORD25 /// SNORD26 /// SNORD27 /// SNORD28 /// SNORD29 /// SNORD31 / Fold change (Aza/veh), C12orf56 (ProbeSet 11735607_a_at) / Fold change (ACY-1035/veh), C12orf56 (ProbeSet 11735607_a_at) / Fold change (Aza/veh), FGFR1OP (ProbeSet 11751329_s_at) / Fold change (ACY-1035/veh), FGFR1OP (ProbeSet 11751329_s_at) / Fold change (Aza/veh), VPS36 (ProbeSet 11739960_a_at) / Fold change (ACY-1035/veh), VPS36 (ProbeSet 11739960_a_at) / RFU SYPL1 (11715823_x_at) / Fold change /veh SYPL1 (11715823_x_at) / RFU IGFBP7 (11715501_s_at) / Fold change /veh IGFBP7 (11715501_s_at) / RFU REEP3 (11722064_at) / Fold change /veh REEP3 (11722064_at) / RFU IGLL1 (11728026_x_at) / Fold change /veh IGLL1 (11728026_x_at): dose or concentration left out as unconfirmed
Details: MV-4-11 cells, 48 hours

In the case of `Nc1ncn([C@@H]2O[C@H](CO)[C@@H](O)[C@H]2O)c(=O)n1` [azacitidine], the “RFU RHOB (11743442_s_at)” value is reported as 110.59 RFU.
